Results as given in patent US20260199193A1, “POWDERY SOLID COSMETIC” (Shiseido Company, Ltd., priority 2022, published 2026).
Peptide text beside a SMILES is read from it.

Assay: log P value (octanol/water partition coefficient)
Type: physicochemical
Details: octanol / aqueous buffer solution at pH 7
Text: The log P value of the nonionic water-soluble agent may be 1.8 or less, 1.5 or less, 1.3 or less, or 1.0 or less, and may be −4.0 or more, −3.8 or more, −3.5 or more, −3.3 or more, −3.0 or more, −2.7 or more, or −2.5 or more. The “log P value” herein is a parameter that represents the tendencies of partitioning of a substance into water and octanol, and is a value commonly used as an index to determine the degree of hydrophilicity or hydrophobicity of a substance. The smaller the log P value, the more hydrophilic the substance is meant to be. The larger the log P value, the more hydrophobic the substance is meant to be. The log P value may also be referred to as “octanol/water partition coefficient” according to the method of its calculation. The octanol/water partition coefficient can be determined by adding an agent into a flask containing octanol and an aqueous buffer solution at pH 7, shaking the flask, and then performing calculation according to the following Equation A based on the agent concentration in each phase: […]

logP | SMILES
-1.4 | O=C1NCCN1CCO [1-(2-hydroxyethyl)-2-imidazolidinone]
0.1 | C[N+](C)(C)CC(=O)[O-] [trimethylglycine]
1.4 | NCCS(=O)(=O)O [taurine]
-1.8 | OCC(O)CO [Glycerin]
-2.3 | NCC(=O)NCC(=O)O [glycylglycine] (H-Gly-Gly-OH)
-2 | NC[C@H]1CC[C@H](C(=O)O)CC1 [tranexamic acid, reference compound]

More lines, now with the values behind:

SMILES | logP
OC[C@@H](O)[C@H](O)[C@@H](O)CO [xylitol] | -2.5
Cc1ncc(CO)c(CO)c1O [pyridoxine] | -0.8
CCOC1=C(O)[C@@H]([C@@H](O)CO)OC1=O [2-O-ethyl ascorbic acid] | -1.5
Nc1ncnc2c1ncn2[C@@H]1O[C@H](CO)[C@@H](O)[C@H]1O [adenosine] | -1.1
OC[C@H]1O[C@@H](Oc2ccc(O)cc2)[C@H](O)[C@@H](O)[C@@H]1O [arbutin] | -0.7
CC(O)CCO (stereo not drawn) [1,3-butylene glycol] | -0.4
NC(=O)c1cccnc1 [niacinamide] | -0.4
O=C1O[C@H]([C@@H](O)CO)C(O)=C1O [L-ascorbic acid] | 1.6
OC[C@H]1O[C@H](O[C@H]2O[C@H](CO)[C@@H](O)[C@H](O)[C@H]2O)[C@H](O)[C@@H](O)[C@@H]1O [trehalose] | -1.7
